Data published in ChEMBL document CHEMBL1129090, “Potent fluoromethyl ketone inhibitors of recombinant human calpain I” (Bioorg Med Chem Lett, 1996).
*1 amine or outer side, *2 acyl side, *3 side chain or, on linkers, in order; H or OH if unused. Where a SMILES comes first, the peptide text is derived from it. [ ]: non-standard residue; d: D form. The star is where a group is joined. ξ: configuration not given here. ξF = NC(Cc1ccccc1)C(=O)O; Cbz = O=C(OCc1ccccc1)*; Boc = CC(C)(C)OC(=O)*; CO = O=C([*:1])[*:2]; NHBn = c1ccc(CN*)cc1; ξAbu = CCC(N)C(=O)O; CH2F = FC*

The compounds below were run against T1, Calpain-1 catalytic subunit (Homo sapiens) (UniProt P07384) (assay: Compound was tested for inhibitory activity against recombinant human Calpain 1).
T1 sequence (whole entry): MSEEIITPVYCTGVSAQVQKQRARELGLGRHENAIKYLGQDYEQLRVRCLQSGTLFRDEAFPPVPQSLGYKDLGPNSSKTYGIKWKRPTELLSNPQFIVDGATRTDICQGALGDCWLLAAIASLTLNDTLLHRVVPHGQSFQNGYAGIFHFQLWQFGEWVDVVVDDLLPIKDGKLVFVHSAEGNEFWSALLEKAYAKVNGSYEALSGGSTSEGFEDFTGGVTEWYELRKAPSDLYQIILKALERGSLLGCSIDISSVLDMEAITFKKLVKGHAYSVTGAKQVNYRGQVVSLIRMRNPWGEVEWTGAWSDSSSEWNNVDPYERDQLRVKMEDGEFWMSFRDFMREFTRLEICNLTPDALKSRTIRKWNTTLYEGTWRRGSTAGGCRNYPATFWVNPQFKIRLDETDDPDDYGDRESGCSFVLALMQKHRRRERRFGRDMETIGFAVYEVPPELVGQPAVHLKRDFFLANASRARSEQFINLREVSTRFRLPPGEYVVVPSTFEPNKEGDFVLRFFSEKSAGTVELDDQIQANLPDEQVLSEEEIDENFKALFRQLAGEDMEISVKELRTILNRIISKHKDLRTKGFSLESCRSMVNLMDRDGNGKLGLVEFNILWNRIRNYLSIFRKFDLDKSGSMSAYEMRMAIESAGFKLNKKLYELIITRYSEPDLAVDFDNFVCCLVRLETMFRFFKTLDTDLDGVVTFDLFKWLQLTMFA

Compound | K obs / 1
CC(C)C[C@H](NS(=O)(=O)N1CCOCC1)C(=O)NC(Cc1ccccc1)C(=O)CF (stereo partly specified) | 67200 M⁻¹ s⁻¹
CC(C)C[C@H](NC(=O)[C@H]1O[C@@H]1C(=O)O)C(=O)NCCCCN=C(N)N | 4700 M⁻¹ s⁻¹
CC(C)C[C@H](NC(=O)NCc1ccccc1)C(=O)NC(Cc1ccccc1)C(=O)CF (stereo partly specified) ({NHBn-CO}-Leu-[ξF]-CH2F) | 67200 M⁻¹ s⁻¹

Results, then the compound that gave them:

K obs / 1 | Compound
136000 M⁻¹ s⁻¹ | CC(C)C[C@H](NC(=O)OCc1ccccc1)C(=O)NC(Cc1ccccc1)C(=O)CF (stereo partly drawn) (Cbz-Leu-[ξF]-CH2F)
68600 M⁻¹ s⁻¹ | CC(C)C[C@H](NC(=O)OC(C)(C)C)C(=O)NC(Cc1ccccc1)C(=O)CF (stereo partly drawn) (Boc-Leu-[ξF]-CH2F)
24200 M⁻¹ s⁻¹ | CCC(NC(=O)[C@H](CC(C)C)NC(=O)OCc1ccccc1)C(=O)CF (stereo partly drawn) (Cbz-Leu-[ξAbu]-CH2F)
